According to paper PMC12615753, “Glutathione as a taste modulator: molecular mechanisms of interaction with umami and sweet taste receptors” (Food Chemistry: Molecular Sciences, 2025):

Biological target: T1, hTAS1R1 A170W/rTAS1R3 (UniProt Q7RTX1+Q923K1, A170W)
T1 construct: The cDNA coding region of rTAS1R3 was synthesized with optimized-codon usage for human expression; expressed in transfected cells; host or cells: HEK293T/17
T1 sequence (Q7RTX1 21-841 A170W): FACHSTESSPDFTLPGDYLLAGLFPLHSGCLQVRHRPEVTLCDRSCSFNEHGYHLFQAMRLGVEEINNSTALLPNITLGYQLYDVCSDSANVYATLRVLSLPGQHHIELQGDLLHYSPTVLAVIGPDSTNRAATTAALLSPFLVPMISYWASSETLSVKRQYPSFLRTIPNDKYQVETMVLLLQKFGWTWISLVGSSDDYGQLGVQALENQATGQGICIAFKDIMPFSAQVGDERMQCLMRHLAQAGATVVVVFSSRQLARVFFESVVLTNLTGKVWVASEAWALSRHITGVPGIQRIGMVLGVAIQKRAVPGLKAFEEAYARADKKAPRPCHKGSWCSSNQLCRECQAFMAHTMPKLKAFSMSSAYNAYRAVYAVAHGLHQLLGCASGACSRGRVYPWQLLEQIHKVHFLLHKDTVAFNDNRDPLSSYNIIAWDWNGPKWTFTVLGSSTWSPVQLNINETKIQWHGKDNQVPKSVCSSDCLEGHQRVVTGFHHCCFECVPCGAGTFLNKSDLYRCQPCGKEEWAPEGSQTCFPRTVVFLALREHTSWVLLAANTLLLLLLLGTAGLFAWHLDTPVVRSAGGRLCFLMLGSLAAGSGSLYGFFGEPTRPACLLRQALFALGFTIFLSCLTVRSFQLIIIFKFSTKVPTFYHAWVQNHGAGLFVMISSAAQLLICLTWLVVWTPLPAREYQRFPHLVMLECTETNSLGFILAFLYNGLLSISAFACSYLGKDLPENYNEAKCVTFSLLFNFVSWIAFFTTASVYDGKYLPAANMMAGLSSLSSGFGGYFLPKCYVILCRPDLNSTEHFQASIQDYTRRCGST
T1 sequence (Q923K1 21-858): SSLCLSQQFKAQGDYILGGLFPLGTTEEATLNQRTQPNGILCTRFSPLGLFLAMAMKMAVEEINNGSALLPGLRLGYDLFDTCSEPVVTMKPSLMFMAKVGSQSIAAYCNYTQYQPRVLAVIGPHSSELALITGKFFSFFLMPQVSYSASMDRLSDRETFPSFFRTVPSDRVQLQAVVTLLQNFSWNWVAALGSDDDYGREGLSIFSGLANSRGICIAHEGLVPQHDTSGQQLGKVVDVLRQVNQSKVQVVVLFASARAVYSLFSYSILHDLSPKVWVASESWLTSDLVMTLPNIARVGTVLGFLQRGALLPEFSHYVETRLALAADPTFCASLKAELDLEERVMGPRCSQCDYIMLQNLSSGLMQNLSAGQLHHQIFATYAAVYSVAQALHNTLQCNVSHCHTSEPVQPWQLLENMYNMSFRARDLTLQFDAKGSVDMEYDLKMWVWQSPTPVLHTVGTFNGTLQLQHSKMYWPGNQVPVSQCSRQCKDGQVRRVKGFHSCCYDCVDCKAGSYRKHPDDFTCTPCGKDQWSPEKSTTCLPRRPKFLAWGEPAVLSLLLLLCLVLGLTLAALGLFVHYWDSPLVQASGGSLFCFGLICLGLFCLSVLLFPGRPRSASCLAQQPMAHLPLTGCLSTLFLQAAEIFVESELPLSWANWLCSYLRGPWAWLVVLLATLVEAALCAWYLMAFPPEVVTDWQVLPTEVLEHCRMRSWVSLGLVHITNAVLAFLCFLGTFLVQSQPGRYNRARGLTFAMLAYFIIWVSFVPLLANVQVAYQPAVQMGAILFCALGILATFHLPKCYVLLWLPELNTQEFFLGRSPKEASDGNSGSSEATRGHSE
Experiment: Calcium assay, hTAS1R1 mutant co-expressed with rTAS1R3
Type: cell-based, human, rat

| SMILES | EC50 [mM] | Max ∆F/F0 (A170W, GSH) | R1 = mutant EC50/WT EC50 (A170W, GSH) | response to the agonist alone, vs WT (A170W) |
| --- | --- | --- | --- | --- |
| N[C@@H](CCC(=O)N[C@@H](CS)C(=O)NCC(=O)O)C(=O)O [GSH, γ-L-glutamyl-L-cysteinyl-glycine] | 5.29 ± 1.56 | 0.09 ± 0.01 | 2.1 | – |
| N[C@@H](CCC(=O)O)C(=O)O [L-Glu, L-glutamic acid, reference compound] | – | – | – | completely suppressed |
